Source: paper PMC7041945, “Misfolded proteins bind and activate death receptor 5 to trigger apoptosis during unresolved endoplasmic reticulum stress” (eLife, 2020)

Assays:
[1] = tested on: XBP1 mRNA in HCT116 cells; assay: RT-PCR for Xbp1 mRNA splicing; type: cell-based, Homo sapiens; details: HCT116, 24 hr
Procedure: Cells were grown in 6-well plates and harvested with 0.5 ml of TRIzol reagent (Life Technologies) per manufacturer's protocol to extract RNA. […] The reverse transcription product was diluted to 200 μl with 10 mM Tris-HCl pH 8.2 and used at 1:100 dilution for subsequent RT-PCR reactions. 2 μl of cDNA was added to 0.2 μM of forward and reverse primers ([…]; Hs_XBP1_Rev: [NT]), 0.2 mM of each dNTP, 0.5 units of Taq DNA polymerase (Thermo Scientific). The reaction was set at an annealing temperature of 60.5°C with an extension time of 30 s for 26 cycles.

GFP (340+341) = assay: qPCR of GFP transcript (expression of GFP-tagged construct); type: cell-based; details: Rep 2; for avg. fold induction GFP (340+341) / fold induction GFP (340+341): relative to empty traffo
[2] = tested on: CHOP, BiP, and DR5 mRNA in HCT116 cells; assay: qPCR of UPR target transcripts (CHOP, BiP, DR5); type: cell-based, Homo sapiens; details: Rep 2; for avg. fold induction CHOP / avg. fold induction DR5 total / fold induction CHOP / fold induction DR5 total: relative to empty traffo; for avg. fold induction CHOP / avg. fold induction DR5 total: mean of 3 replicates
Procedure: Cells were grown in 6-well plates and harvested with 0.5 ml of TRIzol reagent (Life Technologies) per manufacturer’s protocol to extract RNA. For cDNA synthesis, 500 ng of total RNA was reverse transcribed with 2 μl of the SuperScript VILO master mix (Life Technologies # 11755050) in a total reaction volume of 10 μl following the manufacturer’s protocol for reaction temperature and duration. The reverse transcription product was diluted to 200 μl with 10 mM Tris-HCl pH 8.2 and used at 1:100 dilution for subsequent RT-PCR reactions.
PCR samples were prepared as described by manufacturer’s protocols from iQ SYBR Green Supermix (BioRad #17088800).
For each experiment, qRT-PCR reactions were set up in triplicate and run using a CFX96 Real Time System (Bio-Rad). Quantitation cycles were determined with CFX Manager 3.0 software (Bio-Rad) and then normalized to GAPDH as an internal control.

INS-GFP: GFP-tagged proinsulin expressed from plasmid
XBP1 mRNA splicing [1]: induced XBP1 mRNA splicing
avg. fold induction GFP (340+341) (GFP (340+341); 3 hr, mean of 3 replicates): 6059.51
fold induction GFP (340+341) (GFP (340+341); 3 hr, replicate 1): 5553.44
fold induction GFP (340+341) (GFP (340+341); 3 hr, replicate 2): 6428.23
fold induction GFP (340+341) (GFP (340+341); 3 hr, replicate 3): 6196.87
2^-(deltaCq) GFP (340+341) (GFP (340+341); 3 hr, replicate 1): 0.9383
Cq GFP (340+341) (GFP (340+341); 3 hr, replicate 1): 19.2537
Cq(sample) - avg Cq(GAPDH), GFP (340+341) (GFP (340+341); 3 hr, replicate 1): 0.0918
2^-(deltaCq) GFP (340+341) (GFP (340+341); 3 hr, replicate 2): 1.086
Cq GFP (340+341) (GFP (340+341); 3 hr, replicate 2): 19.0426
Cq(sample) - avg Cq(GAPDH), GFP (340+341) (GFP (340+341); 3 hr, replicate 2): -0.1192
2^-(deltaCq) GFP (340+341) (GFP (340+341); 3 hr, replicate 3): 1.047
Cq GFP (340+341) (GFP (340+341); 3 hr, replicate 3): 19.0955
Cq(sample) - avg Cq(GAPDH), GFP (340+341) (GFP (340+341); 3 hr, replicate 3): -0.06635
avg. fold induction GFP (340+341) (GFP (340+341); 7 hr, mean of 3 replicates): 36312.6
fold induction GFP (340+341) (GFP (340+341); 7 hr, replicate 1): 36506.4
fold induction GFP (340+341) (GFP (340+341); 7 hr, replicate 2): 31765.4
fold induction GFP (340+341) (GFP (340+341); 7 hr, replicate 3): 40666.1
2^-(deltaCq) GFP (340+341) (GFP (340+341); 7 hr, replicate 1): 6.168
Cq GFP (340+341) (GFP (340+341); 7 hr, replicate 1): 16.6754
Cq(sample) - avg Cq(GAPDH), GFP (340+341) (GFP (340+341); 7 hr, replicate 1): -2.625
2^-(deltaCq) GFP (340+341) (GFP (340+341); 7 hr, replicate 2): 5.3673
Cq GFP (340+341) (GFP (340+341); 7 hr, replicate 2): 16.8761
Cq(sample) - avg Cq(GAPDH), GFP (340+341) (GFP (340+341); 7 hr, replicate 2): -2.4242
2^-(deltaCq) GFP (340+341) (GFP (340+341); 7 hr, replicate 3): 6.871
Cq GFP (340+341) (GFP (340+341); 7 hr, replicate 3): 16.5198
Cq(sample) - avg Cq(GAPDH), GFP (340+341) (GFP (340+341); 7 hr, replicate 3): -2.781
avg. 2^-(deltaCq) GFP (340+341) (GFP (340+341); 24 hr, mean of 3 replicates): 90.4075
2^-(deltaCq) GFP (340+341) (GFP (340+341); 24 hr, replicate 1): 82.5431
Cq GFP (340+341) (GFP (340+341); 24 hr, replicate 1): 13.3376
Cq(sample) - avg Cq(GAPDH), GFP (340+341) (GFP (340+341); 24 hr, replicate 1): -6.367
2^-(deltaCq) GFP (340+341) (GFP (340+341); 24 hr, replicate 2): 92.9155
Cq GFP (340+341) (GFP (340+341); 24 hr, replicate 2): 13.1668
Cq(sample) - avg Cq(GAPDH), GFP (340+341) (GFP (340+341); 24 hr, replicate 2): -6.538
2^-(deltaCq) GFP (340+341) (GFP (340+341); 24 hr, replicate 3): 95.7639
Cq GFP (340+341) (GFP (340+341); 24 hr, replicate 3): 13.1232
Cq(sample) - avg Cq(GAPDH), GFP (340+341) (GFP (340+341); 24 hr, replicate 3): -6.581
avg. fold induction CHOP ([2]; 3 hr): 2.592
avg. fold induction DR5 total ([2]; 3 hr): 0.7038
fold induction CHOP ([2]; 3 hr, replicate 1): 2.854
fold induction DR5 total ([2]; 3 hr, replicate 1): 0.6229
fold induction CHOP ([2]; 3 hr, replicate 2): 2.329
fold induction DR5 total ([2]; 3 hr, replicate 2): 0.8572
fold induction CHOP ([2]; 3 hr, replicate 3): 2.592
fold induction DR5 total ([2]; 3 hr, replicate 3): 0.6314
2^-(deltaCq) CHOP ([2]; 3 hr, replicate 1): 0.03284
2^-(deltaCq) DR5 total ([2]; 3 hr, replicate 1): 0.01816
Cq CHOP ([2]; 3 hr, replicate 1): 24.0903
Cq DR5 total ([2]; 3 hr, replicate 1): 24.9448
Cq(sample) - avg Cq(GAPDH), CHOP ([2]; 3 hr, replicate 1): 4.928
Cq(sample) - avg Cq(GAPDH), DR5 total ([2]; 3 hr, replicate 1): 5.783
2^-(deltaCq) CHOP ([2]; 3 hr, replicate 2): 0.0268
2^-(deltaCq) DR5 total ([2]; 3 hr, replicate 2): 0.02499
Cq CHOP ([2]; 3 hr, replicate 2): 24.3837
Cq DR5 total ([2]; 3 hr, replicate 2): 24.4842
Cq(sample) - avg Cq(GAPDH), CHOP ([2]; 3 hr, replicate 2): 5.2218
Cq(sample) - avg Cq(GAPDH), DR5 total ([2]; 3 hr, replicate 2): 5.322
2^-(deltaCq) CHOP ([2]; 3 hr, replicate 3): 0.02982
2^-(deltaCq) DR5 total ([2]; 3 hr, replicate 3): 0.01841
Cq CHOP ([2]; 3 hr, replicate 3): 24.2295
Cq DR5 total ([2]; 3 hr, replicate 3): 24.9253
Cq(sample) - avg Cq(GAPDH), CHOP ([2]; 3 hr, replicate 3): 5.068
Cq(sample) - avg Cq(GAPDH), DR5 total ([2]; 3 hr, replicate 3): 5.763
avg. fold induction CHOP ([2]; 7 hr): 6.389
avg. fold induction DR5 total ([2]; 7 hr): 1.383
fold induction CHOP ([2]; 7 hr, replicate 1): 6.347
fold induction DR5 total ([2]; 7 hr, replicate 1): 1.604
fold induction CHOP ([2]; 7 hr, replicate 2): 6.646
fold induction DR5 total ([2]; 7 hr, replicate 2): 1.272
fold induction CHOP ([2]; 7 hr, replicate 3): 6.175
fold induction DR5 total ([2]; 7 hr, replicate 3): 1.275
2^-(deltaCq) CHOP ([2]; 7 hr, replicate 1): 0.07302
2^-(deltaCq) DR5 total ([2]; 7 hr, replicate 1): 0.04677
Cq CHOP ([2]; 7 hr, replicate 1): 23.0759
